Assay results taken from ChEMBL document CHEMBL1143893, “Novel nitroheterocyclic hypoxic markers for solid tumor: synthesis and biological evaluation” (Bioorg Med Chem, 2008).

Experiment: Drug level in Chinese hamster V79 379A cells at 0.1 mM after 3.5 hrs by fluorescence microplate reader relative to control
Assay type: ADME, cell-based, Cricetulus griseus
Conditions: 100 µM

Work on `O=[N+]([O-])c1ccc2nc3c(nc2c1)-c1cccc2c([N+](=O)[O-])ccc-3c12` yielded a Fold change of 6.
In the case of `CN(C)CCNc1ccc2c3c(cccc13)-c1nc3cc([N+](=O)[O-])ccc3nc1-2`, the Fold change is reported as 11.
With `CN1CCN(c2ccc3c4c(cccc24)-c2nc4cc([N+](=O)[O-])ccc4nc2-3)CC1` the Fold change was 9.
